This note sets out measurements from the METLIN SMRT retention time set (Domingo-Almenara et al. 2019).

The series is described as follows: gradient 5% acetonitrile 3 min, to 50% in 2 min, to 85% in 15 min, held 3 min, 100 µL/min. To be noted: column: Zorbax Extend-C18 2.1 x 50 mm; eluents: water / acetonitrile, 0.1% formic acid. In short, it runs like this: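 Standards, all pure, were combined into mixtures of ~100 molecules and run at 100 μL/min on a Zorbax Extend-C18 column (2.1 × 50 mm, 1.8 μm) with water and acetonitrile, each containing 0.1% formic acid. A coupled quadrupole time-of-flight mass spectrometer operated in positive and negative ionization mode. Retention time values come from computationally picked adduct peaks, each inspected manually.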
Consider `CCCNC(=O)C1CCN(S(C)(=O)=O)c2ccccc2O1` (centres undefined), for which the RP-LC retention time stood at 708 s.
On to `O=C(Cn1ccc2ccccc21)NCCn1ncccc1=O`, for which the RP-LC retention time came out at 625 s.
To `C=CCNC(=O)C1CCCN(C(=O)Nc2ccc(NC(=O)Nc3ccc(CC)cc3)cc2)C1` (centres undefined) belongs 780 s; to `CN(C)C[C@@H]1CN(S(C)(=O)=O)C[C@H]1NC(=O)Cn1c(=O)oc2ccccc21`, 575 s; to `COc1ccc(CCNCC(O)Cn2c3c(c4ccccc42)CCN(C)C3=O)cc1OC` (centres undefined), 666 s.
To `O=C(Cn1nc2c(Oc3ccc(Cl)cc3)nccn2c1=O)NCc1ccco1` belongs 804 s.
As for `COc1ccc(-c2nnc(-c3cc(S(=O)(=O)N4CCC(C)CC4)ccc3Cl)o2)cc1`, the figure is 1160 s.
Take `CNC(=O)N1CCCC(c2cccc(C(=O)N3CCN(c4cccc(Cl)c4)CC3)c2)C1` (centres undefined): the RP-LC retention time amounted to 895 s.
`O=C(c1ccc(Br)o1)N1CCc2nc(-c3ccc(Cl)cc3)ncc2C1`: the RP-LC retention time turned out to be 1100 s.
To `CCCCn1cc(S(=O)(=O)N2CCN(c3ccccc3C)CC2)c2cccnc21` belongs 1280 s.
`CN1C(=O)C(C)(C(=O)N2CCC(Cc3ccccc3)CC2)Oc2cccnc21` (centres undefined) came in with an RP-LC retention time of 1020 s.
To `CC(C)C(=O)Nc1ccc2nc(N3CCN(c4ccccc4F)CC3)cc(C(=O)O)c2c1` belongs 664 s; to `CCC(C(=O)N1CCOc2ccc(C)cc21)n1cnc2nc3c(cc2c1=O)CCCC3` (centres undefined), 950 s.
To `CSc1nc2ccc(NC(=O)c3ccc(N4C(=O)CCC4=O)cc3)cc2s1` belongs 730 s; to `CCOC(=O)C1CCCN(c2ccc3nnc(CCc4nc(-c5ccccc5C)no4)n3n2)C1` (centres undefined), 1030 s.
Consider `COc1ccc(S(=O)(=O)N2CCN(c3cc(C)c4ccccc4n3)CC2)cc1`, for which the RP-LC retention time was 701 s.
Regarding `CCCCCCC(=O)Nc1nc(-c2ccc(C)cc2)cs1`, the RP-LC retention time turned out to be 1190 s.
Compound `CCCn1cc(C2=CCN(C(=O)Nc3ccc(C)c(C)c3)CC2)c2cccnc21` had an RP-LC retention time of 1010 s.
For the compound `O=C(CSc1ncnc2c1cnn2-c1ccc(F)cc1)Nc1nc2ccccc2s1`, the RP-LC retention time was 1020 s.
`Cn1nnnc1SCC(=O)NCCCC(=O)Nc1cccc2cccnc12` came in with an RP-LC retention time of 620 s.
As for `Cn1cc(CCN2CCN(C(=O)c3ccccc3Br)CC2)c2cccnc21`, the figure is 598 s.
To `CC1(C)CC(=O)c2cc3c(N)c(C(=O)Nc4ccccc4[N+](=O)[O-])sc3nc2C1` belongs 1100 s; to `Cc1cc(C)n(-c2ccnc(N3CCC(C(=O)NCc4ccc(F)cc4)CC3)n2)n1`, 833 s; to `COc1nn(C)cc1C(=O)Nc1cc(C(F)(F)F)ccc1Cl`, 980 s.
On to `O=c1c2cc(-c3ccccc3)nn2ccn1Cc1noc(CN2CCCCC2)n1`, for which the RP-LC retention time came to 651 s.
To `COc1ccc(-n2cc(-c3nc(-c4ccccn4)no3)c3ccccc3c2=O)cc1OC` belongs 821 s.
As for `Cc1cccc2c(=O)n(C3CCN(C(=O)Nc4ccc(F)cc4)CC3)cnc12`, the figure is 765 s; as for `O=C(Cn1ccn2nc(-c3ccccc3)c(CO)c2c1=O)Nc1ccc(Cl)cc1F`, 869 s; as for `Cc1c(Cl)cccc1N1CC(c2nc3ccccc3[nH]2)CC1=O` (centres undefined), 577 s.
With `CCCNC(=O)NCCC1CCN(S(=O)(=O)c2ccc(C)cc2)CC1`, the RP-LC retention time came out at 742 s.
For the compound `Clc1cccc(N2CCN(c3ncnc4[nH]ncc34)CC2)c1`, the RP-LC retention time came out at 725 s.
To `Fc1cc(F)cc(-c2nnc(Cc3nc(-c4cccnc4)no3)o2)c1` belongs 805 s.
`CCCN1C(=O)c2cccnc2Sc2cc(C(=O)N3CCCC3)ccc21`: the RP-LC retention time amounted to 720 s.
For `O=C(Cc1ccsc1)N1CCC2(CC1)N=C(c1ccccc1)NO2`, the RP-LC retention time was 774 s.
As for `CCNS(=O)(=O)c1cccnc1Nc1cc(C)cc(C)c1`, the figure is 1060 s; as for `CC(=O)N1c2ccc(S(=O)(=O)N3CCCC3)cc2CC1C(=O)NC1CCCCCCC1` (centres undefined), 907 s; as for `c1ccc2c(N3CCCCCC3)nnc(-c3nc(C4CC4)no3)c2c1`, 895 s.
`CCn1cc(-c2nc(CC(=O)Nc3ccc(F)c(C)c3)cs2)c2cccnc21`: the RP-LC retention time came out at 902 s.
In turn, `CCOc1ccc(S(=O)(=O)N2CCC3(CC2)c2nccn2CCN3C)cc1` returned an RP-LC retention time of 651 s.
For `CCCNC(=O)CCc1nc2ccccc2n(CC(=O)NC(C)CC)c1=O` (centres undefined), the RP-LC retention time was found to be 688 s.
As for `COCCn1ccc2nc(C)c(C(=O)NCc3cccs3)cc2c1=O`, the figure is 656 s; as for `O=C(O)c1ccc(N2CCOCC2)c(NC(=O)c2ccc(Br)cc2)c1`, 828 s; as for `CCOC(=O)c1ccc(N2CC3=C(C2=O)C(c2ccc(OC)cc2)NC(=O)N3C)cc1` (centres undefined), 878 s.
To `O=C(Cn1cnc2nc(N3CCCC(C(=O)NC4CC4)C3)sc2c1=O)Nc1ccc(Cl)cc1` (centres undefined) belongs 721 s; to `COc1ccc(-c2nc3cnccn3c2NCCC(=O)Nc2ccc3c(c2)OCO3)cc1`, 673 s; to `O=c1ccc(-n2cccn2)nn1CCNS(=O)(=O)c1ccc(F)c(Cl)c1`, 722 s.
To `COc1ccc(OC)c(NC(=O)N(C)CCc2noc(COc3ccc(Cl)cc3)n2)c1` belongs 1000 s; to `COc1ccc(-c2nc(-c3cccc(-c4ccnn4C)c3)no2)cc1OC`, 1020 s.
In turn, `CCN(CC)S(=O)(=O)c1cc(-c2nnc(-c3ccc(OC)c(OC)c3)o2)ccc1C` gave an RP-LC retention time of 991 s.
Compound `CCC(NC(=O)c1nnc(-c2ccc(S(=O)(=O)N(C)C)cc2)o1)c1cccs1` (centres undefined) returned an RP-LC retention time of 912 s.
To `CCCCC(=O)Nc1ccc2nc(N3CCN(c4ccccc4Cl)CC3)cc(C(=O)O)c2c1` belongs 1010 s; to `Cc1nn(C)c(C)c1CCNC(=O)Nc1cccc(Br)c1`, 677 s; to `Cc1noc(-c2nc(-c3ccccc3F)no2)n1`, 990 s.
To `CCc1nc2cccnc2n1CCN1CCN(C(=O)Nc2cccc(Br)c2)CC1` belongs 616 s.
`Cc1ccccc1N1CC(C(=O)N(C)C)CC1=O` (centres undefined): the RP-LC retention time amounted to 628 s.
To `COc1ccc(C2Cn3nnc(-c4nc(-c5ccc(OC(C)C)cc5)no4)c3CO2)cc1` (centres undefined) belongs 1250 s.
For `O=C(c1ccc(Cl)cc1)N1CCC2(C1)C(=O)Nc1ccccc12` (centres undefined), the RP-LC retention time was 765 s.
To `COc1ccc(-c2cc(N3CCC(NC(=O)c4cccc(OC(F)(F)F)c4)C3)n[nH]2)cc1` (centres undefined) belongs 828 s; to `CN(C)CC1(O)CCC2(CCN(C(=O)C3CCCC3)CC2)CC1`, 591 s.
To `CCn1ccc2sc(C)c(C(=O)NCc3ccc4c(c3)OCO4)c2c1=O` belongs 769 s; to `COc1cccc2cc(C(=O)NCc3cccnc3)oc12`, 564 s.
Turning to `CCN(CCNC(=O)c1cc(=O)n(C)c2c1c(=O)n(C)c(=O)n2C)Cc1ccccc1`, the RP-LC retention time is 646 s.
Compound `Cc1noc(C)c1CC(=O)N1CC(c2noc(C3CCCN3C)n2)C1` (centres undefined) had an RP-LC retention time of 594 s.
For the compound `Cc1ccc(S(=O)(=O)NCc2ccccc2)cc1`, the RP-LC retention time is 908 s.
For the compound `O=C(N[C@H]1C[C@@H]2C[C@H]1CN2C(=O)Nc1ccc2c(c1)CCC2)c1ccccc1`, the RP-LC retention time came to 829 s.
With `CCOc1ccc(-c2noc(-c3nn(-c4ccc(F)cc4)c(=O)c4ccccc34)n2)cc1OC`, the RP-LC retention time came out at 1240 s.
In the case of `COC(=O)c1ccccc1Nc1c(-c2ccc(N3CCOCC3)cc2)nc2cnccn12`, the RP-LC retention time came out at 874 s.
To `Cc1ccc(C)c(NS(=O)(=O)c2cc3c(s2)CCN(C(=O)C2CCC2)C3)c1` belongs 859 s; to `CC(Cc1ccco1)NC(=O)CC1CCN(C(=O)c2ccc3nc(-c4ccccc4)oc3c2)CC1` (centres undefined), 830 s.
The compound `CCCN(C(C)=O)c1nc(-c2cccc(Br)c2)cs1` gave an RP-LC retention time of 1260 s.
To `CCC(C)NC(=O)c1c2c(cn(-c3ccccc3)c1=O)C(=O)CC(C)(C)C2` (centres undefined) belongs 942 s; to `COC(=O)c1ccc(NS(=O)(=O)c2cc(-c3c(C)noc3NC(C)=O)ccc2OC)cc1`, 720 s.
`CN1CCN(Cc2nn(C)c3c2CN(S(=O)(=O)c2ccc(F)c(Cl)c2)CC3)CC1`: the RP-LC retention time was found to be 622 s.
As for `CCc1nc(-c2csc(S(=O)(=O)N3CCCC(C(=O)Nc4cc(F)ccc4F)C3)c2)no1` (centres undefined), the figure is 1090 s; as for `COc1ccccc1OCC(=O)NCCN1CCN(c2ccccc2OC)CC1`, 574 s; as for `Cc1ccc(S(=O)(=O)N2CC=C(N)N2)cc1`, 684 s.
Compound `CCn1cc(CCN2CCC(C(=O)Nc3ccc(C)cc3)CC2)c2cccnc21` displayed an RP-LC retention time of 644 s.
With `Cc1cc(C)cc(NC(=O)C2CCN(Cc3cnn(-c4ccccc4)c3-n3cccc3)CC2)c1`, the RP-LC retention time turned out to be 794 s.
As for `Cc1ccccc1S(=O)(=O)N1CCc2c(c(-c3nnc(-c4ccc(F)cc4)o3)nn2C)C1`, the figure is 955 s.
